From US11787799B2 (priority 2015, dated 2023)
Values joined by “and” are separate entries in the source; they are usually repeats but may differ in a detail not shown here. Identical values can stand only once.

Experiments:
[1] = test system: Enterovirus D68/US/KY/14-18953; assay: Antiviral assay, Enterovirus D68 strain US/KY/14-18953 in RD cells; assay type: cell-based
Coxsackievirus B2 = assay: microbe, parasite or virus in culture; assay type: cell-based; details: read-out: EC50 CVB2
Enterovirus 71 = assay: microbe, parasite or virus in culture; assay type: cell-based; details: read-out: EC50 EV71
Coxsackievirus B5 = assay: microbe, parasite or virus in culture; assay type: cell-based; details: read-out: EC50 CVB5
Coxsackievirus B3-H3 = assay: microbe, parasite or virus in culture; assay type: cell-based; details: read-out: EC50 CVB3-H3
[2] = test system: Enterovirus D68/US/Mo/14-18949; assay: Antiviral assay, Enterovirus D68 strain US/Mo/14-18949 in RD cells; assay type: cell-based
Coxsackievirus B1 = assay: microbe, parasite or virus in culture; assay type: cell-based; details: read-out: EC50 CVB1
Echovirus 6 = assay: microbe, parasite or virus in culture; assay type: cell-based; details: read-out: EC50 ECHO06
Coxsackievirus A9 = assay: microbe, parasite or virus in culture; assay type: cell-based; details: read-out: EC50 COX A9
Poliovirus 3 = assay: microbe, parasite or virus in culture; assay type: cell-based; details: read-out: EC50 PV3
Poliovirus 1 = assay: microbe, parasite or virus in culture; assay type: cell-based; details: read-out: EC50 PV1
Enterovirus D68/Fermon = assay: Antiviral assay, Enterovirus D68 strain Fermon in RD cells; assay type: cell-based
Coxsackievirus B4 = assay: microbe, parasite or virus in culture; assay type: cell-based; details: read-out: EC50 CVB4
Echovirus 9 = assay: microbe, parasite or virus in culture; assay type: cell-based; details: read-out: EC50 ECHO09
Echovirus 7 = assay: microbe, parasite or virus in culture; assay type: cell-based; details: read-out: EC50 ECHO07

SMILES	EC50 [1]	EC50 (Coxsackievirus B2)	EC50 (Enterovirus 71)	EC50 (Coxsackievirus B5)	EC50 (Coxsackievirus B3-H3)	EC50 [2]	CC50 (HeLa-RW cells)	EC50 (Coxsackievirus B1)	EC50 (Echovirus 6)	EC50 (Coxsackievirus A9)	CC50 (LLC cells)	EC50 (Poliovirus 3)	EC50 (Poliovirus 1)	EC50 (Enterovirus D68/Fermon)	EC50 (Coxsackievirus B4)	CC50 (RD cells)	EC50 (Echovirus 9)	EC50 (Echovirus 7)
CC(C)n1ncc2c(C(=O)N3CCc4cc(F)ccc43)cc(-c3cccs3)nc21 [JX-048]	4100 ± 1200 nM	1500 nM	1300 ± 200 nM	1200 nM	1500 nM	2100 ± 600 nM	20000 nM	1500 nM	1100 nM	1200 nM	> 200000 nM	> 10000 nM	> 10000 nM	2800 ± 450 nM	1200 nM	> 200000 nM		
CC(C)n1ncc2c(C(=O)Nc3cccc(S(N)(=O)=O)c3)cc(C3CC3)nc21 [JX-055]	730 ± 120 nM					400 ± 200 nM								700 ± 200 nM		> 200000 nM		
CC(C)n1ncc2c(C(=O)Nc3cccnc3)cc(-c3ccsc3)nc21 [JX-060]		600 nM	2400 nM	600 nM	600 nM		18000 nM	600 nM			37000 nM	> 10000 nM	> 10000 nM		600 nM			
CC(C)n1ncc2c(C(=O)Nc3cccc(C(N)=O)c3)cc(-c3cccs3)nc21 [JX-064]	170 nM	600 nM	500 nM	600 nM	700 ± 100 nM	50 nM	18000 nM	600 nM		600 nM	20000 nM	6250 nM	6250 nM		600 nM	25000 nM	200 nM	
CC(C)n1ncc2c(C(=N)Nc3cccnc3)cc(-c3cccs3)nc21 [JX-065]	6300 nM					4700 ± 1600 nM								6300 nM		75000 nM		
CC(C)n1ncc2c(C(=O)Nc3cncnc3)cc(-c3cccs3)nc21 [JX-066]	150 nM	500 nM	400 nM	500 nM	700 ± 200 nM	50 ± 10 nM	18000 nM	500 nM		400 nM	20000 nM	> 10000 nM	> 10000 nM	60 ± 20 nM	500 nM	25000 nM	200 nM	
CC(C)n1ncc2c(C(=N)Nc3ccc(F)cc3)cc(-c3cccs3)nc21 [JX-067]	2270 ± 230 nM					1270 ± 120 nM	18000 nM							1600 nM		100000 nM		
CC(C)n1ncc2c(C(=O)Nc3cc(S(N)(=O)=O)ccc3F)cc(-c3cccs3)nc21 [JX-068]	110 ± 10 nM	500 nM	500 nM	500 nM	600 nM	50 ± 10 nM	18000 nM	600 nM		600 nM	25000 nM	6250 nM	6250 nM	50 nM	500 nM	25000 nM	200 nM	
CC(C)n1ncc2c(C(=O)Nc3ccccn3)cc(-c3ccccc3)nc21 [JX-070]	700 nM	1600 nM	700 nM		1600 nM		18800 nM	1200 nM			12500 nM	> 10000 nM	> 10000 nM	350 nM		12500 nM		2300 nM
CC(C)n1ncc2c(C(=O)Nc3ccccn3)cc(C3CC3)nc21 [JX-071]	2300 nM	6250 nM	4700 nM		4700 nM		25000 nM	4700 nM			25000 nM	> 10000 nM	> 10000 nM	1200 nM		37000 nM		9400 nM
CC(C)n1ncc2c(C(=O)Nc3cc(C(N)=O)ccc3F)cc(-c3cccs3)nc21 [JX-073]	< 400 nM	1200 nM	500 nM		800 nM		18800 nM	600 nM			25000 nM	5000 nM and 6300 nM	5000 nM	< 400 nM		25000 nM		1200 nM
CC(C)n1ncc2c(C(=O)Nc3ccc(F)cn3)cc(-c3cccs3)nc21 [JX-075]	< 400 nM		1200 nM		700 ± 100 nM	< 400 nM	37500 nM				> 200000 nM	> 10000 nM	> 10000 nM	< 400 nM		25000 nM		
CC(C)n1ncc2c(C(=O)N3CCc4cccnc43)cc(-c3cccs3)nc21 [JX-076]	4700 nM		12500 nM		9400 nM	4000 nM	37500 nM				50000 nM	> 10000 nM	> 10000 nM	4000 nM		45000 nM		
